Assay results as given in PMC9415894, “Development of Cross-Reactive Antibodies for the Identification and Treatment of Synthetic Cannabinoid Receptor Agonist Toxicity” (Vaccines, 2022).

Assays:
Type in all cases: binding, mice
[1] = tested on: antibodies generated from vaccination with hapten 2; test: Competitive ELISA, day 35 pooled sera of hapten 2 vaccine group; settings: for % Inhibition, HAPTEN 2: SCRA at 10 μM, day 35 pooled sera
Description: (§1) Vaccination: Vaccine formulation consisted of our bioconjugates at 1 mg/mL (100 μg/mouse), Alum (50 μg/mouse) and a 1 mg/mL CpG ODN 1826 (50 μg/mouse) in 1X PBS solution. Vaccines were shaken at 4 °C for 45 min prior to animal use. Mock vaccines consisted of the same components with the bioconjugate replaced with native KLH. All animals were vaccinated on day zero and received two boosts, one on day 14 and one on day 28. Sera was collected from each animal on days 21 and 35 via retroorbital blood draws.
(§2) Antibody Titers: Costar® 96-well plates were coated with 25 μL of a 5 μg/mL solution of hapten-BSA conjugate and incubated overnight at 37 °C. Plates were then methanol fixed and non-specific protein binding was blocked with 5% Blotto for 30 min. Pooled sera from either day 21 (1:100 in 5% blotto) or 35 (1:400) were added and serially diluted across the plate before incubating at 37 °C for 60 min. Plates were then washed with 1X PBS prior to the addition of secondary antibody conjugated to horse-radish peroxidase, which incubated at 37 °C for 30 min. Equal parts tetramethylbenzidine and hydrogen peroxide (50 μL) were added to each well and reacted for 15 min before being quenched with 50 μL of 2M sulfuric acid. Optical densities were determined at 450 nm using MiniMax 300 plate reader (Molecular Devices). Lastly, midpoint titers were calculated from the % optical density versus log(dilution) using the log(inhibition) vs response variable slope equation on GraphPad Prism v9 (San Diego, CA, USA).
(§3) Competitive ELISA: Costar® 96-well plates were coated as described in the antibody titer section. After the plates are blocked, 25 μL of a 1:titer solution of each BSA-hapten conjugate is added to every well. Equal volume of a 40 μM solution of each SCRA is then added to column one, and 1:2 serially diluted concentrations added across the wells. Optical densities were determined as in titer experiments, and percent inhibitions were evaluated with GraphPad Prism 9 as in titer experiments.

[2] = tested on: antibodies generated following vaccination with hapten 4; test: Competitive ELISA, day 35 pooled sera of hapten 4 vaccine group; settings: for % Inhibition, HAPTEN 4: SCRA at 10 μM; for % Inhibition, HAPTEN 4 / IC50: day 35 pooled sera; for IC50: 11 concentrations; for binding by hapten 4 antibodies (in words): day 35 sera
Description: as §1, §2, §3

[3] = tested on: antibodies generated from vaccination with hapten 1; test: Competitive ELISA, day 35 pooled sera of hapten 1 vaccine group; settings: for % Inhibition, HAPTEN 1: SCRA at 10 μM; for % Inhibition, HAPTEN 1 / IC50: day 35 pooled sera; for IC50: 11 concentrations; for reactivity of hapten 1 antibodies (in words): day 35 sera
Description: as §1, §2, §3

[4] = tested on: antibodies generated following vaccination with hapten 3; test: Competitive ELISA, day 35 pooled sera of hapten 3 vaccine group; settings: for % Inhibition, HAPTEN 3: SCRA at 10 μM; for % Inhibition, HAPTEN 3 / IC50: day 35 pooled sera; for IC50: 11 concentrations; for binding by hapten 3 antibodies (in words): day 35 sera
Description: as §1, §2, §3

Row | Compound | % Inhibition, HAPTEN 2 [1] [%] | % Inhibition, HAPTEN 4 [2] [%] | % Inhibition, HAPTEN 1 [3] [%] | IC50 [3] [nM] | reactivity of hapten 1 antibodies (in words) [3] | % Inhibition, HAPTEN 3 [4] [%] | IC50 for hapten 1 relative to compound 1 ([3]; compared with IC50 against compound 1) | IC50 [2] [nM] | binding by hapten 4 antibodies (in words) [2] | IC50 [4] [nM] | binding by hapten 3 antibodies (in words) [4] | reactivity of hapten 2 antibodies (in words) ([1]; day 35 sera)
1 | CCCCCn1cc(C(=O)c2cccc3ccccc23)c2ccccc21 [Compound 1, JWH-018] | 17.7 | 10.9 | 60.0 | 5540 | micromolar | 14.6 |  |  |  |  |  | 
2 | O=C(c1cccc2ccccc12)c1cn(CCCCCF)c2ccccc12 [Compound 2, AM-2201] | 29.5 | 14.4 | 79.3 | 1140 | micromolar | 18.0 | approximately five times lower |  |  |  |  | 
3 | CCCCCn1cc(C(=O)NC(C(=O)OC)C(C)C)c2ccccc21 (centres unmarked) [Compound 3, MMB-PICA] | 15.2 | 71.0 | 0.0 |  |  | 91.8 |  | 1260 | bind | 38 | micromolar to sub-micromolar | 
4 | COC(=O)C(NC(=O)c1cn(CCCCCF)c2ccccc12)C(C)C (centres unmarked) [Compound 4] | 19.9 | 54.3 | 8.8 |  |  | 69.0 |  | 6690 | bind | 744 | micromolar to sub-micromolar | 
5 | CCCCCn1nc(C(=O)NC(C(=O)OC)C(C)C)c2ccccc21 (centres unmarked) [Compound 5, MMB-PINACA] | 25.5 | 85.5 | 6.9 |  |  | 82.6 |  | 334 | bind | 269 | micromolar to sub-micromolar | 
6 | COC(=O)C(NC(=O)c1nn(CCCCCF)c2ccccc12)C(C)C (centres unmarked) [Compound 6, 5F-AMB] | 28.7 | 63.9 | 16.8 |  |  | 57.4 |  | 2660 | bind | 3320 | micromolar to sub-micromolar | 
7 | COC(=O)C(NC(=O)c1nn(Cc2ccc(F)cc2)c2ccccc12)C(C)C (centres unmarked) [Compound 7, AMB-FUBINACA] | 30.7 | 77.7 | 11.1 |  |  | 76.0 |  | 966 | sub-micromolar | 299 | sub-micromolar | 
8 | CCCCCn1cc(C(=O)Oc2cccc3ccccc23)c2ccccc21 [Compound 8, NAPIC] | 31.5 | 11.0 | 13.6 |  | no reactivity | 19.2 |  |  |  |  |  | little to no reactivity
